Patent US8236340B2, “Drug formulations for coating medical devices” (REVA Medical, Inc., priority 2003, dated 2012)

Key:
[1] = system: smooth muscle cell (SMC) proliferation; conditions: cited from earlier work
[2] = Physical stability of drug coated on balloon from dimethylsulfoxide/ethanol solution; format: physicochemical
From the text: Initially, the deposited lipid form a translucent film, but within an hour or so the deposited material slowly transforms to a white crystallite appearance. The deposition uniformity as measured by microscopy is spotty across the balloon surface. After several days, the white powder continues to transform until it flakes off the balloon and is no longer believed to be in an available state. Decreased availability may be described as the dissolution/deaggregation time of the solid relative to deposition and diffusion within the artery, which prevents it from exerting its effect. Currently, to study the effect of C6-ceramide in animal models, the DMSO/ethanol formulation containing C6-ceramide is coated onto the balloon just prior to insertion into the artery. The role of the solvent is to keep the lipid material in an available film-like state sufficient for it to be rapidly deposited and absorbed quickly in the artery, where it is shown to exert an effect within 15 minutes. However, organic solvents, in which the drug is very soluble, tend to evaporate rapidly and the solvents may also penetrate and affect the balloon performance. Alternative solvents and formulations are needed that permit the drug to remain in a dissolved state yet remain physically stable without changing with time.

[3] = Solubility/dispersibility of drug in the three formulation approaches; format: physicochemical; conditions: all three formulation approaches; all components first dissolved in a volatile solvent such as ethanol
From the text: In all cases the drug was coated onto a balloon from an ethanol solution containing C6-ceramide and the other solvents in each formulation. Once the ethanol evaporated from the surface of the device, the drug was uniformly dispersed over the surface and dissolved within the non-volatile solvent(s). The ethanol was useful in that it decreased the viscosity of the oil/drug mixture thereby promoting uniform coating.

solubility/dispersibility in formulation approaches [3]: sufficiently soluble and/dispersible
SMILES: CCCCCCCCCCCCC/C=C/[C@@H](O)[C@H](CO)NC(=O)CCCCC [C6-ceramide]
time to initiate activity ([1]; after application of a single dose from an angioplasty balloon): ≤ 15 min
SMC proliferation ([1]; in vitro cell culture and in vivo (rabbit carotid model and pig coronary)): inhibit SMC proliferation
physical form of deposited drug over time [2]: physical form of the drug changes with time
